Experimental data published in PubChem BioAssay (NCI).
Where “and” joins values, the source holds several entries; their conditions need not be identical. Equal entries are not always repeated.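 1) Cells in 96-well plates. 2) Compound, 48 h, 5 concentrations. 3) Linear interpolation between surrounding doses. 4) Unreached endpoint = highest concentration. Abbreviation: GI50, concentration required for 50% inhibition of growth. TGI denotes the concentration required for complete inhibition of growth.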

Tests used:
Assay in all cases: NCI tumour cell line growth inhibition, 48 h
[1] = test system: MALME-3M melanoma
[2] = test system: SK-MEL-28 melanoma
[3] = test system: RXF 393 renal
[4] = test system: OVCAR-4 ovarian
[5] = test system: UACC-257 melanoma
[6] = test system: KM12 colon
[7] = test system: BT-549 breast
[8] = test system: M14 melanoma
[9] = test system: A498 renal
[10] = test system: SN12C renal

| Structure (SMILES) | GI50 [1] [µM] | TGI [1] | GI50 [2] [µM] | TGI [2] [µM] | GI50 [3] [µM] | TGI [3] [µM] | GI50 [4] [µM] | TGI [4] [µM] | GI50 [5] [µM] | TGI [5] | GI50 [6] | TGI [6] [µM] | GI50 [7] [µM] | TGI [7] [µM] | GI50 [8] [µM] | TGI [8] | GI50 [9] [µM] | TGI [9] [µM] | GI50 [10] [µM] | TGI [10] [µM] |
| --- | --- | --- | --- | --- | --- | --- | --- | --- | --- | --- | --- | --- | --- | --- | --- | --- | --- | --- | --- | --- |
| Nc1ncnc2c1N=C(c1ccc3c(c1)OCO3)CC(c1ccc([N+](=O)[O-])cc1)N2 (centres undefined) | 61.1 | > 100 µM | > 100 | > 100 | 7.19 | 63.1 | > 100 | > 100 | > 100 | > 100 µM | 35.2 µM | > 100 | 1.68 | 53.1 | > 100 | > 100 µM | 25.1 | 90 | 82.6 | > 100 |
| Cc1cc2c(C(C)C)c(O)c(O)cc2c(O)c1-c1c(C)cc2c(C(C)C)c(O)c(O)cc2c1O | 10.9 | 24.6 µM | 16.8 | 32.8 | 15.1 | 33.5 | 14 | 33.8 | 26.6 | 65 µM | 11.6 µM | 27.2 | 14.4 | 41.2 | 12.3 | 27.6 µM | 14.1 | 32.2 | 8.03 | 20.6 |
| Cc1cccc(/C=N/NC(=S)N2CCCC2)n1 | 1 | 5.18 µM and 0.783 µM | 1.42 | > 100 | 2.09 |  |  | 6.95 |  | 9.51 µM and 12.1 µM | 0.88 µM and 0.322 µM | > 100 | 3.02 | > 100 | 0.392 | 2.64 µM and 0.485 µM | 7.22 | 5.61 | 0.719 |  |
| COc1cc2nc(N3CCCC3)nc(NCc3ccccc3)c2cc1OC | 1.84 | 3.34 µM | 1.75 | 3.19 | 1.41 | 3.06 | 2.95 | 11.3 | 1.96 | 4.04 µM | 4.52 µM | 17 | 3.52 | 13.4 | 1.81 | 3.49 µM | 2.16 | 8.56 | 8.09 | 21.7 |
| O=C(C/C(=N/O)C(=O)NC1=C(Cl)C(=O)c2ccccc2C1=O)CC(c1ccccc1)c1c(O)c2ccccc2oc1=O (centres undefined) |  | 4.55 µM |  | > 100 |  | 35 |  | 22.2 |  | > 100 µM |  | 17.8 |  | > 100 |  | 18.6 µM |  | > 100 |  | 23.5 |
| COc1ccc(C/C(C)=C(/c2ccc(OCCN3CCCCC3)cc2)c2ccc(OC(=O)NCc3ccccc3)cc2)cc1 | 0.395 | 0.776 µM | 0.44 | 0.818 | 0.435 | 0.876 | 0.393 | 0.764 | 0.472 | 0.917 µM | 0.44 µM | 0.826 | 0.379 | 0.763 | 0.344 | 0.731 µM | 0.398 | 0.744 | 0.428 | 0.8 |
| C#CC#CC#CC#CC#CC#CC#CC#CCC1OCC(COC(=O)O[C@@H](C(=O)O[C@H]2C[C@@]3(O)[C@@H](OC(=O)c4ccccc4)[C@@H]4[C@]5(OC(C)=O)CO[C@@H]5C[C@H](O)[C@@]4(C)C(=O)[C@H](OC(C)=O)C(=C2C)C3(C)C)[C@@H](NC(=O)c2ccccc2)c2ccccc2)O1 (some centres undefined) | 0.28 | > 33.3 µM | 0.25 | > 33.3 | 0.599 | > 8.96 | > 33.3 | > 33.3 | > 8.95 | > 33.3 µM | 0.0986 µM | > 33.3 | 0.586 | > 33.3 | 0.16 |  | 0.191 |  | 0.51 | > 33.3 |
| NC(=O)N/N=C1/CCC(O)CC1CC(=O)O (centres undefined) |  | > 100 µM |  | > 100 |  | > 100 |  | > 100 |  | > 100 µM |  | > 100 |  | > 100 |  | > 100 µM |  | > 100 |  | > 100 |
| O=C1Nc2ccc(Br)cc2C1=Nc1cccnc1 |  | 46.8 µM |  | 42 |  | 29.1 |  | 25.1 |  | 55.9 µM |  | 99.3 |  | 33.2 |  | 31.5 µM |  | > 100 |  | 37.9 |
| N#C/C(=C\c1ccsc1)c1nc2ccccc2o1 | 45.2 | > 100 µM | > 100 | > 100 | 39.8 | > 100 | > 100 | > 100 | > 100 | > 100 µM | > 100 µM | > 100 | 48.4 | > 100 | > 100 | > 100 µM | 33.6 | > 100 | > 100 | > 100 |
| O=C1OCC2=C1C(c1cccc(Cl)c1)c1cc3c(cc1N2CCO)OCCO3 (centres undefined) | 0.0551 | > 100 µM | 0.0839 | > 100 | 0.0294 | 0.174 | 0.118 | > 100 | 0.0364 | 28.2 µM | 0.0431 µM | 1.72 | 0.147 | 11.8 | 0.0493 | 1.57 µM | 0.0265 | 0.58 | 0.27 | 46.3 |
